Measurements taken from US5132291A, “Antivirals and methods for increasing the antiviral activity of AZT” (priority 1989, dated 1992).
Like-named read-outs stand apart in the source and are kept apart here.

Columns and labels:
SAH hydrolase = SAH hydrolase inhibition; assay type: biochemical
Experimental: The effect of incubation time and AICA riboside concentration on SAH hydrolase activity was determined as follows. Five samples of SAH hydrolase were incubated at the following AICA riboside concentrations: 0, 10, 25, 50 and 100 μM. The incubation buffer consisted of 25 mM potassium phosphate pH 7.0, 1 mM EDTA, 1 mM, DTT and 0.04% BSA. The total enzyme added to incubation mixture was 10 μg. At indicated times, 10 μl of sample was withdrawn and assayed in the following assay system: 25 mM potassium phosphate, pH 7.0, 40 mM DL-Homocysteine, 1 mM EDTA, 1 mM DTT, 10 μM EHNA, 0.1% BSA and 10 μM U-^14 C Adenosine (590 m Ci/mmole). The reaction was stopped by adding 15 μl of 30% TCA. The samples were then centrifuged and 15 μl were removed and applied to Kodak cellulose 13254 TLC plates along with SAH and adenosine markers. The plates were then developed in a solvent system of 1-butanol:methanol:H2 O:ammonium hydroxide (60:20:20:2). The adenosine and S-adenosyl homocysteine were visualized under UV light and the spots were cut from the plate. Radioactivity of the spots was determined by liquid scintillation spectrometry. From a plot of the reciprocal of Kinactivation vs. 1/AICA riboside concentration the values of Ki (X-intercept) and Kmax (Y-intercept), were determined (FIG. 10(b)).

WI-L2 cells = experiment: Lymphoblast assay, effects on cell growth, WI-L2 B-cell line; assay type: cell-based; conditions: AICA riboside alone, up to 500 μM
Experimental: (§1) Several lymphoblast lines were utilized in conjunction with varying doses of antiviral agents to determine their effects on cell growth. In this method a daily cell count over a period of time, post-addition of antiviral compounds, can be compared with the normal cell growth curve.
(§2) Two representative T-cell lines, SupT-1 and CEM, and a B-cell line, WI-L2, were grown to mid-log phase 5×10^5 cells/ml in 50 ml of RPMI 1640 (Irvine Scientific) supplemented with 10% heat-inactivated fetal calf serum (Gemini-Bioproducts) and 1% glutamine (Gibco) to standardize seeding conditions and to assure a population of logarithmically growing cells.
(§3) An appropriate number cf T-25 flasks (Corning) were seeded with evenly suspended cells at 0.5×10^5 cells/ml in 20 ml of fresh growth media. Including a control condition, each set of flasks was treated with a dose range of antiviral compound for each cell line. Each dose condition was repeated in triplicate. All flasks were incubated for 5 days at 37° C. in a 5% CO2 incubator.
(§4) Every 24 hours for 5 days, three 0.2 ml samples of each flask were diluted in 9.8 ml of isoton (Fisher Scientific) and counted on a cell counter (Coulter Co.). The average of each flask was recorded, and the average of each triplicate antiviral does was then averaged and recorded.

[1] = Lymphoblast assay, effects on cell growth, SupT-1 T-cell line; assay type: cell-based; conditions: human, supt-1 cells, AICA riboside alone, SUP T-1, read-out: reduction in T-cell growth
Experimental: as §1, §2, §3, §4

[2] = Lymphoblast assay, effects on cell growth, CEM T-cell line; assay type: cell-based; conditions: human, cem cells, AICA riboside alone, read-out: reduction in T-cell growth
Experimental: as §1, §2, §3, §4

HIV-1 = experiment: HIV syncitial forming assay using CEM-SS cells; assay type: cell-based
Text: The following cytomorphologic infectivity bioassay was used to characterize antiviral activity against HIV-1. In the following assay a single infectious unit of virus infects a single cell and initiates a focal expression of that infection, i.e., a syncitium. Since a single infectious unit leads to a discrete response, a linear relationship exists between the number of virally-induced cytopathic effects and the first order of virus concentration. Application of this procedure in assays for virus inactivation allows for evaluation of the candidate antiviral agent.
CEM-SS (syncitium-sensitive Leu 3a-positive CEM cell line) cells were grown in RPMI 1640 cell culture media (Irvine Scientific) supplemented with 10% heat-inactivated fetal bovine serum (Gemini Bioproducts) and 1% […] glutamine (Gibco). Log-phase cells were split 1:2 with the growth medium the day prior to setting up the assay to standardize plating conditions and to assure a population of logarithmically growing cells. Ninety-six-well plates (Costar) were pretreated with 50 μl of 50 μg/ml poly-1-lysine (MW=295,000 Sigma) "PLL") and were left at room temperature for 60 minutes. Residual PLL was removed with two washes of PBS. The plates were stored in the incubator until used.
On the day of the assay, the cells were counted and enough cells were harvested to plate each well with 5.0×10^4 cells per well in a volume of 200 μl (or 20 ml of […] was appropriate for each 96-well microtitre plate).
The cells were plated out on the PLL pre-treated microtitre plates at 5.0×10^4 cells/well in a volume of 200 μl. After allowing attachment for 30 minutes at 37° C. and 5% CO2, the antiviral agent(s) were added in the noted amounts and the treated plates were pre-incubated for 24 hours.
The HIV-1 virus stock (isolated from infected H-9 cells) was diluted in growth medium to yield 100 SFU (syncytial-forming units) per well. Diluted HIV-1 virus, 20 μl, was added to appropriate wells. All the plates were then incubated for 5 days at 37° C. and 5% CO2. On day 5 post-infection, the cells were given a 100 μl media change. […]

HIV = HIV syncitial forming assay using SupT-1 cells; assay type: cell-based; conditions: AICA riboside 5 μM-500 μM
Experimental: The assay was performed following the procedure described in Example Three except that SupT-1 cells were used. Using the SupT-1 cells, the medium was not changed at day 5 post-infection and the syncitia were counted at day 5 post-infection at 40X. The results are plotted in FIGS. 5, 6(b), and 7.

NC(=O)c1ncn([C@@H]2O[C@H](CO)[C@@H](O)[C@H]2O)c1N [AICA riboside, 5-amino-1-β-D-ribofuranosyl-imidazole-4-carboxamide]
inhibition of SAH hydrolase (SAH hydrolase): very potent inhibitors | inhibition of SAH hydrolase (SAH hydrolase; even at a concentration as low as 10 μM): potent inhibitors | effect on WI-L2 (B-cell) growth (WI-L2 cells): no effect | inhibition at 500 µM [1]: 30 to 50% | inhibition at 500 µM [2]: 30 to 50% | antiviral effect (number of syncitia) (HIV-1; AICA riboside 5 μM and 50 μM, 24 hour preincubation before HIV infection): antiviral effect | antiviral effect with preincubation versus addition at the time of infection (HIV-1; CEM cells, HIV): more effective as an antiviral with preincubation | effectiveness against the AIDS virus (prevention of syncitial formation) (HIV): less than 100%
